In US20210060016A1, “ANTICANCER AGENT” (JAPANESE FOUNDATION FOR CANCER RESEARCH, priority 2017, published 2021):

Tested on: human colorectal cancer cell line COLO-320DM
Assay: MTT assay, combination of test compound and other anticancer agents
Type: cell-based
Settings: Examples 9 to 14, COLO-320DM: test compound added at the concentration shown in FIGS. 9 to 14 to irinotecan (SN-38); survival with only irinotecan = 100%
Protocol: The ratio of residual cells in treatment of the human colorectal cancer cell line COLO-320DM with a combination of the compound prepared in each Compound Example (test compound or tankyrase inhibitory compound) and each of the anticancer agents was measured to evaluate the cell killing effect of the combination on the human colorectal cancer cell line COLO-320DM. The combinations of test compounds and anticancer agents are as follows.
(Example 8): combination of the compound prepared in Compound Example 5 and temozolomide, melphalan, gemcitabine, cytarabine (Ara-C), fluorouracil (5-FU), pemetrexed, mercaptopurine, methotrexate, irinotecan (SN-38), etoposide (VP-16), actinomycin D, daunorubicin, doxorubicin, bleomycin, mitoxantrone, oxaliplatin, carboplatin or cisplatin (Example 9): combination of the compound prepared in Compound Example 110 (G007-LK) and irinotecan (SN-38) (Example 10): combination of the compound prepared in Compound Example 11 and irinotecan (SN-38) (Example 11): combination of the compound prepared in Compound Example 19 and irinotecan (SN-38) (Example 12): combination of the compound prepared in Compound Example 101 and irinotecan (SN-38) (Example 13): combination of the compound prepared in Compound Example 1 and irinotecan (SN-38) (Example 14): combination of the compound prepared in Compound Example 113 and irinotecan (SN-38)
Commercially available compounds were used for temozolomide (manufactured by Sigma-Aldric), melphalan (manufactured by Signa-Aldrich), gemcitabine (Gemcitabine hydrochloride; manufactured by Sigma-Aldric), cytarabine (Cytosine β-D-arabinofuranoside (Ara-C); manufactured by Sigma-Aldrich), fluorouracil (5-Fluorouracil (5-FU); manufactured by Sigma-Aldrich), pemetrexed (Pemetrexed disodium heptahydrate; manufactured by Sigma-Aldrich), mercaptopurine (6-Mercaptopurine monohydrate; manufactured by Sigma-Aldrich), methotrexate (Methotrexate hydrate; manufactured by Sigma-Aldrich), irinotecan (7-Ethyl-10-hydroxycamptothecin (SN-38); manufactured by Sigma-Aldrich), etoposide (Etoposide (VP-16); manufactured by Enzo Life Sciences, Inc.), actinomycin D (manufactured by nacalai tesque), daunorubicin (Daunorubicin hydrochloride; Calbiochem), doxorubicin (Doxorubicin hydrochloride; manufactured by Sigma-Aldrich), bleomycin (Bleomycin sulfate; manufactured by Enzo Life Sciences, Inc.), mitoxantrone (Mitoxantrone dihydrochloride; manufactured by Sigma-Aldrich), oxaliplatin (manufactured by Sigma-Aldrich), carboplatin (manufactured by Sigma-Aldrich) and cisplatin (manufactured by Enzo Life Sciences, Inc.).
First, the human colorectal cancer cell line COLO-320DM was suspended in RPMI1640 medium (hereinafter, medium) containing inactivated 10% fetal bovine serum, and the cells were seeded in a 96-well microplate at 350 cells (75 μL) per well. The cells were subjected to stationary culture overnight in a CO2 incubator at 37° C. Thereafter, in Example 8, a medium (25 μL) containing a combination of the compound prepared in Compound Example 5 and each of the anticancer agents was added in triplicate in such a manner that the final concentrations of the test compound (compound prepared in Compound Example 5) were 0 nM or 30 nM and that the final concentrations of each anticancer agent were those shown in Table 14. In Examples 9 to 14, a medium (25 μL) containing a combination of the compound prepared in each of Compound Examples and each of the anticancer agents was added in triplicate in such a manner that the final concentrations of the test compound were 0 nM or those shown in FIGS. 9 to 14. As a control, 25 μL of a medium containing only dimethyl sulfoxide (DMSO) which is a solvent was added. […]

COc1ccc(-c2c[nH]nc2C2NC(=O)c3cccc(C)c3N2)cc1 (centres unmarked) [Compound Example 113, 2-[4-(4-Methoxyphenyl)-1H-pyrazol-3-yl]-8-methyl-2,3-dihydro-1H-quinazolin-4-one]
cell survival rate: about 50%

CCOc1ccc(-c2n[nH]nc2[C@H]2NC(=O)c3cccc(C)c3N2)cc1 [Compound Example 101, (2R)-2-[5-(4-Ethoxyphenyl)-2H-1,2,3-triazol-4-yl]-8-methyl-2,3-dihydro-1H-quinazolin-4-one]
cell survival rate: about 50%
